According to patent US20240025919A1, “AZA-TETRACYCLIC OXAZEPINE COMPOUNDS AND USES THEREOF” (Genentech, Inc., priority 2022, published 2024):

Tests used:
KRAS G12D = KRAS G12D (Homo sapiens (Human), UniProt P01116, G12D); assay: KRAS G12D LoEnz Biochemical Assay, BODIPY-GDP Exchange TR-FRET (SOS1-mediated nucleotide exchange); conditions: read-out: KRas (G12D) GDP HTRF IC50
KRAS WT = KRAS WT (Homo sapiens (Human), UniProt P01116); assay: KRAS WT Biochemical Assay, BODIPY-GDP Exchange TR-FRET (Example 501; 3 nM KRAS WT, 3 nM SOS1, 60-minute incubation); conditions: read-out: KRas HTRF IC50
In short: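 SOS1-mediated exchange assay: 3 nM biotin-KRAS WT with terbium-streptavidin, started with 3 nM SOS1 and 300 nM BODIPY-GDP, HEPES pH 7.5 with MgCl2. TR-FRET (520/490 nm) read after 60 min; normalized to DMSO and full-inhibition control, IC50 from 4-parameter Hill fit.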

KRAS WT, sequence (P01116-2 other isoform, or with tags, fused parts or gaps): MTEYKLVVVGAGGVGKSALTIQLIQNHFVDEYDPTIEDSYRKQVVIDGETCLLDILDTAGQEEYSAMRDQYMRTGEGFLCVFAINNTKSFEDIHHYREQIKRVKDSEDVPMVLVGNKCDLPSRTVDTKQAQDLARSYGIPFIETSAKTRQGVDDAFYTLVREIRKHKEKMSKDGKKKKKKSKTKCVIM
KRAS G12D, sequence (P01116-2 other isoform, or with tags, fused parts or gaps G12D): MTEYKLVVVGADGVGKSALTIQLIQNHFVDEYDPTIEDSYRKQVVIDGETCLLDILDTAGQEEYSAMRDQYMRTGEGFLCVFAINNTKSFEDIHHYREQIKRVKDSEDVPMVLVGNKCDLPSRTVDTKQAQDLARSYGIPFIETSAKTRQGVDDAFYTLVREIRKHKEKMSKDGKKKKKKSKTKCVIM

## C[C@@H]1Oc2nc(-c3c(F)ccc4cc[nH]c(=O)c34)c(F)c3nc(OC[C@@]45CCCN4C[C@H](F)C5)nc(c23)N2C[C@H]3CC[C@H](N3)[C@@H]12 [Compound 196, 7-Fluoro-8-((5S,5aS,6S,9R)-1-fluoro-12-(((2R,7aS)-2-fluorotetrahydro-1H-pyrrolizin-7a(5H)-yl)methoxy)-5-methyl-5a,6,7,8,9,10-hexahydro-5H-4-oxa-3,10a,11,13,14-pentaaza-6,9-methanonaphtho[1,8-ab]heptalen-2-yl)isoquinolin-1(2H)-one]
KRAS G12D
  IC50: 248 nM
KRAS WT
  IC50: 20100 nM

## Cc1nc(N)c(Cl)c(-c2nc3c4c(nc(OC[C@@]56CCCN5C[C@H](F)C6)nc4c2F)N2C[C@H]4CC[C@H](N4)[C@H]2[C@H](C)O3)c1C(F)(F)F [Compound 197, 3-Chloro-4-((5S,5aS,6S,9R)-1-fluoro-12-(((2R,7aS)-2-fluorotetrahydro-1H-pyrrolizin-7a(5H)-yl)methoxy)-5-methyl-5a,6,7,8,9,10-hexahydro-5H-4-oxa-3,10a,11,13,14-pentaaza-6,9-methanonaphtho[1,8-ab]heptalen-2-yl)-6-methyl-5-(trifluoromethyl)pyridin-2-amine]
KRAS G12D
  IC50: 0.46 nM
KRAS WT
  IC50: 59.8 nM

## Cc1nc(N)c(C)c(-c2nc3c4c(nc(OC[C@@]56CCCN5C[C@H](F)C6)nc4c2F)N2C[C@H]4CC[C@H](N4)[C@H]2[C@H](C)O3)c1C(F)(F)F [Compound 198, 4-((5S,5aS,6S,9R)-1-Fluoro-12-(((2R,7aS)-2-fluorotetrahydro-1H-pyrrolizin-7a(5H)-yl)methoxy)-5-methyl-5a,6,7,8,9,10-hexahydro-5H-4-oxa-3,10a,11,13,14-pentaaza-6,9-methanonaphtho[1,8-ab]heptalen-2-yl)-3,6-dimethyl-5-(trifluoromethyl)pyridin-2-amine]
KRAS G12D
  IC50: 0.62 nM
KRAS WT
  IC50: 85.8 nM

## C[C@@H]1Oc2nc(-c3cc(N)cc4c3CC4)c(F)c3nc(OC[C@@]45CCCN4C[C@H](F)C5)nc(c23)N2C[C@H]3CC[C@H](N3)[C@@H]12 [Compound 201, 5-((5S,5aS,6S,9R)-1-Fluoro-12-(((2R,7aS)-2-fluorotetrahydro-1H-pyrrolizin-7a(5H)-yl)methoxy)-5-methyl-5a,6,7,8,9,10-hexahydro-5H-4-oxa-3,10a,11,13,14-pentaaza-6,9-methanonaphtho[1,8-ab]heptalen-2-yl)bicyclo[4.2.0]octa-1(6),2,4-trien-3-amine]
KRAS G12D
  IC50: 9.19 nM
KRAS WT
  IC50: 1620 nM

## Cc1c(F)c(O)cc(-c2nc3c4c(nc(OC[C@@]56CCCN5C[C@H](F)C6)nc4c2F)N2C[C@H]4CC[C@H](N4)[C@H]2[C@H](C)O3)c1C(F)(F)F [Compound 202, 2-Fluoro-5-((5S,5aS,6S,9R)-1-fluoro-12-(((2R,7aS)-2-fluorotetrahydro-1H-pyrrolizin-7a(5H)-yl)methoxy)-5-methyl-5a,6,7,8,9,10-hexahydro-5H-4-oxa-3,10a,11,13,14-pentaaza-6,9-methanonaphtho[1,8-ab]heptalen-2-yl)-3-methyl-4-(trifluoromethyl)phenol]
KRAS G12D
  IC50: 1.98 nM
KRAS WT
  IC50: 214 nM

## Cc1c(F)ccc(-c2nc3c4c(nc(OC[C@@]56CCCN5C[C@H](F)C6)nc4c2F)N2C[C@H]4CC[C@H](N4)[C@H]2[C@H](C)O3)c1C(F)(F)F [Compound 203, (5S,5aS,6S,9R)-1-fluoro-2-(4-fluoro-3-methyl-2-(trifluoromethyl)phenyl)-12-(((2R,7aS)-2-fluorotetrahydro-1H-pyrrolizin-7a(5H)-yl)methoxy)-5-methyl-5a,6,7,8,9,10-hexahydro-5H-4-oxa-3,10a,11,13,14-pentaaza-6,9-methanonaphtho[1,8-ab]heptalene]
KRAS G12D
  IC50: 26.8 nM
KRAS WT
  IC50: 1590 nM

## Cc1c(F)c(N)c(F)c(-c2nc3c4c(nc(OC[C@@]56CCCN5C[C@H](F)C6)nc4c2F)N2C[C@H]4CC[C@H](N4)[C@H]2[C@H](C)O3)c1I [Compound 204, 2,6-Difluoro-3-((5S,5aS,6S,9R)-1-fluoro-12-(((2R,7aS)-2-fluorotetrahydro-1H-pyrrolizin-7a(5H)-yl)methoxy)-5-methyl-5a,6,7,8,9,10-hexahydro-5H-4-oxa-3,10a,11,13,14-pentaaza-6,9-methanonaphtho[1,8-ab]heptalen-2-yl)-4-iodo-5-methylaniline]
KRAS G12D
  IC50: 0.385 nM
KRAS WT
  IC50: 69.1 nM

## Cc1nc(N)cc(-c2nc3c4c(nc(OCC5(CN6CC7COCC7C6)CC5)nc4c2F)N2C[C@H]4CC[C@H](N4)[C@H]2[C@H](C)O3)c1C(F)(F)F (stereo partly drawn) [Compound 205, 4-((5S,5aS,6S,9R)-1-Fluoro-5-methyl-12-((1-((tetrahydro-1H-furo[3,4-c]pyrrol-5(3H)-yl)methyl)cyclopropyl)methoxy)-5a,6,7,8,9,10-hexahydro-5H-4-oxa-3,10a,11,13,14-pentaaza-6,9-methanonaphtho[1,8-ab]heptalen-2-yl)-6-methyl-5-(trifluoromethyl)pyridin-2-amine]
KRAS G12D
  IC50: 3.39 nM
KRAS WT
  IC50: 8.61 nM

## Cc1nc(N)cc(-c2nc3c4c(nc(OCC5(CN6C7CCC6COC7)CC5)nc4c2F)N2C[C@H]4CC[C@H](N4)[C@H]2[C@H](C)O3)c1C(F)(F)F [Compound 206, 4-((5S,5aS,6S,9R)-12-((1-((3-Oxa-8-azabicyclo[3.2.1]octan-8-yl)methyl)cyclopropyl)methoxy)-1-fluoro-5-methyl-5a,6,7,8,9,10-hexahydro-5H-4-oxa-3,10a,11,13,14-pentaaza-6,9-methanonaphtho[1,8-ab]heptalene-2-yl)-6-methyl-5-(trifluoromethyl)pyridin-2-amine]
KRAS G12D
  IC50: 0.17 nM
KRAS WT
  IC50: 24.2 nM

## Cc1nc(N)cc(-c2nc3c4c(nc(OCC5(CN6CC7CCC(C6)O7)CC5)nc4c2F)N2C[C@H]4CC[C@H](N4)[C@H]2[C@H](C)O3)c1C(F)(F)F [Compound 207, 4-((5S,5aS,6S,9R)-12-((1-((8-oxa-3-azabicyclo[3.2.1]octan-3-yl)methyl)cyclopropyl)methoxy)-1-fluoro-5-methyl-5a,6,7,8,9,10-hexahydro-5H-4-oxa-3,10a,11,13,14-pentaaza-6,9-methanonaphtho[1,8-ab]heptalene-2-yl)-6-methyl-5-(trifluoromethyl)pyridin-2-amine]
KRAS G12D
  IC50: 0.36 nM
KRAS WT
  IC50: 43.1 nM

## Cc1nc(N)cc(-c2nc3c4c(nc(OCC5(CN6C[C@@H]7C[C@H]6CO7)CC5)nc4c2F)N2C[C@H]4CC[C@H](N4)[C@H]2[C@H](C)O3)c1C(F)(F)F [Compound 208, 4-((5S,5aS,6S,9R)-12-((1-(((1S,4S)-2-Oxa-5-azabicyclo[2.2.1]heptan-5-yl)methyl)cyclopropyl)methoxy)-1-fluoro-5-methyl-5a,6,7,8,9,10-hexahydro-5H-4-oxa-3,10a,11,13,14-pentaaza-6,9-methanonaphtho[1,8-ab]heptalene-2-yl)-6-methyl-5-(trifluoromethyl)pyridin-2-amine]
KRAS G12D
  IC50: 0.31 nM
KRAS WT
  IC50: 24.7 nM

## Cc1nc(N)cc(-c2nc3c4c(nc(OCC5(CN6C[C@H]7C[C@@H]6CO7)CC5)nc4c2F)N2C[C@H]4CC[C@H](N4)[C@H]2[C@H](C)O3)c1C(F)(F)F [Compound 209, 4-((5S,5aS,6S,9R)-12-((1-(((1R,4R)-2-Oxa-5-azabicyclo[2.2.1]heptan-5-yl)methyl)cyclopropyl)methoxy)-1-fluoro-5-methyl-5a,6,7,8,9,10-hexahydro-5H-4-oxa-3,10a,11,13,14-pentaaza-6,9-methanonaphtho[1,8-ab]heptalene-2-yl)-6-methyl-5-(trifluoromethyl)pyridin-2-amine]
KRAS G12D
  IC50: 0.24 nM
KRAS WT
  IC50: 18.5 nM

## Cc1nc(N)cc(-c2nc3c4c(nc(OCC5(CN6CC7CCC6CO7)CC5)nc4c2F)N2C[C@H]4CC[C@H](N4)[C@H]2[C@H](C)O3)c1C(F)(F)F [Compound 211, 4-((5S,5aS,6S,9R)-12-((1-((2-Oxa-5-azabicyclo[2.2.2]octan-5-yl)methyl)cyclopropyl)methoxy)-1-fluoro-5-methyl-5°,6,7,8,9,10-hexahydro-5H-4-oxa-3,10°,11,13,14-pentaaza-6,9-methanonaphtho[1,8-ab]heptalen-2-yl)-6-methyl-5-(trifluoromethyl)pyridin-2-amine]
KRAS G12D
  IC50: 0.21 nM
KRAS WT
  IC50: 17.8 nM

## Cc1nc(N)cc(-c2nc3c4c(nc(OCC5(CN6CCOC7(CC7)C6)CC5)nc4c2F)N2C[C@H]4CC[C@H](N4)[C@H]2[C@H](C)O3)c1C(F)(F)F [Compound 212, 4-((5S,5aS,6S,9R)-12-((1-((4-Oxa-7-azaspiro[2.5]octan-7-yl)methyl)cyclopropyl)methoxy)-1-fluoro-5-methyl-5a,6,7,8,9,10-hexahydro-5H-4-oxa-3,10a,11,13,14-pentaaza[6,9]methanonaphtho[1,8-ab]heptalene-2-yl)-6-methyl-5-(trifluoromethyl)pyridin-2-amine]
KRAS G12D
  IC50: 0.56 nM
KRAS WT
  IC50: 39.1 nM

## Cc1nc(N)cc(-c2nc3c4c(nc(OCC5(CN6CCO[C@H](C)C6)CC5)nc4c2F)N2C[C@H]4CC[C@H](N4)[C@H]2[C@H](C)O3)c1C(F)(F)F [Compound 213, 4-((5S,5aS,6S,9R)-1-Fluoro-5-methyl-12-((1-(((R)-2-methylmorpholino)methyl)cyclopropyl)methoxy)-5a,6,7,8,9,10-hexahydro-5H-4-oxa-3,10a,11,13,14-pentaaza-6,9-methanonaphtho[1,8-ab]heptalen-2-yl)-6-methyl-5-(trifluoromethyl)pyridin-2-amine]
KRAS G12D
  IC50: 0.31 nM
KRAS WT
  IC50: 13.6 nM

## Cc1nc(N)cc(-c2nc3c4c(nc(OCC56CCN5CC(F)(F)C6)nc4c2F)N2C[C@H]4CC[C@H](N4)[C@H]2[C@H](C)O3)c1C(F)(F)F (stereo partly drawn) [Compound 214, 4-((5S,5aS,6S,9R)-12-((3,3-Difluoro-1-azabicyclo[3.2.0]heptan-5-yl)methoxy)-1-fluoro-5-methyl-5°,6,7,8,9,10-hexahydro-5H-4-oxa-3,10°,11,13,14-pentaaza-6,9-methanonaptho[1,8-ab]heptalen-2-yl)-6-methyl-5-(trifluoromethyl)pyridin-2-amine]
KRAS G12D
  IC50: 0.42 nM
KRAS WT
  IC50: 55.7 nM
